Experimental data published in patent US20230159527A1, “COMPOUNDS AS BCL-2 INHIBITORS” (Fochon Pharmaceuticals, Ltd., priority 2020, published 2023).

Legend:
Type in all cases: cell-based
RS4;11 cells = assay: Cell proliferation assay, RS4;11 cells (MTS, 72 h); conditions: Homo sapiens, RS4;11 cell proliferation
In short: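 RS4;11 cells (30000/well, RPMI-1640 plus 10% FBS) treated with compounds at 1.5-10000 nM for 72 h at 37° C, 5% CO2. Viability by MTS (2 h), absorbance at 490 nm with 650 nm reference; IC50 from proliferation inhibition.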

DoHH2 cells = assay: Cell proliferation assay, DoHH2 cells (MTS, 120 h); conditions: Homo sapiens, DOHH-2
In short: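 DoHH2 cells in RPMI-1640 with 10% FBS were plated at 5000/well and rested 4 h. They were then exposed to compound at nine final concentrations (10000 to 1.5 nM) for 120 h at 37 °C. Viability was read by MTS (2 h, A490) and IC50 derived by curve fitting.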

Toledo cells = assay: Cell proliferation assay, Toledo cells (MTS, 72 h); conditions: Homo sapiens, Toledo cells, MTS, read-out: Toledo IC50
In short: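 Toledo cells (30000/well, RPMI-1640 with 10% FBS) were preincubated for 4 h. They were then exposed to nine compound concentrations from 10000 to 1.5 nM for 72 h at 37 °C, 5% CO2. MTS was added for 2 h and absorbance read at 490 nm to give IC50.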

IC50 (RS4;11 cells)	Structure (SMILES)	IC50 (DoHH2 cells)	IC50 (Toledo cells)
≤ 1 nM	CC(C)c1ccccc1[C@H]1CCCN1C1CC2(CCN(c3ccc(C(=O)NS(=O)(=O)c4cnc(NC[C@H]5CC[C@@](C)(O)CC5)c([N+](=O)[O-])c4)c(Oc4cnc5[nH]ccc5c4)c3)CC2)C1 [Example A-7a, 2-((1H-pyrrolo[2,3-b]pyridin-5-yl)oxy)-N-((6-((((1s,4s)-4-hydroxy-4-methylcyclohexyl)methyl)amino)-5-nitropyridin-3-yl)sulfonyl)-4-(2-((R)-2-(2-isopropylphenyl)pyrrolidin-1-yl)-7-azaspiro[3.5]nonan-7-yl)benzamide]	≤ 1 nM	1 nM
≤ 1 nM	C[C@]1(O)CC[C@H](CNc2ncc(S(=O)(=O)NC(=O)c3ccc(N4CCC5(CC4)CC(N4CCNC[C@H]4c4ccccc4C4CC4)C5)cc3Oc3cnc4[nH]ccc4c3)cc2[N+](=O)[O-])CC1 [Example A-37, 2-((1H-pyrrolo[2,3-b]pyridin-5-yl)oxy)-4-(2-((R)-2-(2-cyclopropyl-phenyl)piperazin-1-yl)-7-azaspiro [3.5]nonan-7-yl)-N-((6-((((1r,4r)-4-hydroxy-4-methylcyclohexyl)methyl)amino)-5-nitropyridin-3-yl)sulfonyl)benzamide]	≤ 1 nM	1 nM
≤ 1 nM	O=C(NS(=O)(=O)c1cc2c(c([N+](=O)[O-])c1)O[C@H](CN1CCOCC1)CO2)c1ccc(N2CCC3(CC2)CC(N2CCC[C@H]2c2ccccc2C2CC2)C3)cc1Oc1cnc2[nH]ccc2c1 (single isomer, unassigned) [Example E-38, 2-((1H-pyrrolo [2,3-b]pyridin-5-yl)oxy)-4-(2-((R or S)-2-(2-cyclopropylphenyl)pyrrolidin-1-yl)-7-azaspiro[3.5]nonan-7-yl)-N-(((R)-2-(morpholinomethyl)-8-nitro-2,3-dihydrobenzo [b][1,4]dioxin-6-yl)sulfonyl) benzamide]	≤ 1 nM	1 nM
